Reference: PubChem BioAssay AID743155 (The Scripps Research Institute Molecular Screening Center, 2013)
Activity calls are given as the source filed them. How the calls were made is not given here.

tested on: Jurkat cells cytotoxicity, ATP luminescence; test: cytotoxicity in Jurkat T cells, late-stage follow-up, cytotoxicity control for T. brucei MetRS inhibitor project, cell-based, luminescence, human T lymphocytes, Round001 (AID 743155)

Row | SMILES | IC50
1 | CC(=O)N(CCc1ccccc1)C1CC(=O)N(c2ccc(Br)cc2)C1=O (centres undefined) | > 27.8 µM (inactive)
2 | CC(=O)N(CCc1ccccc1)C1CC(=O)N(c2ccc(Cl)cc2)C1=O (centres undefined) | > 27.8 µM (inactive)
3 | O=C(Cn1cc(C(=O)COc2ccccc2)c2ccccc21)Nc1cccc(C(F)(F)F)c1 | > 27.8 µM (inactive)
4 | O=C(CSC1CC(=O)N(c2cccc(Cl)c2)C1=O)Nc1ccc(Br)cc1 (centres undefined) | > 27.8 µM (inactive)
5 | O=C(Cn1cc(C(=O)c2ccccc2)c2ccccc21)Nc1cccc(C(F)(F)F)c1 | 55.5 µM (inactive)
6 | O=C(NCCc1nc2ccccc2[nH]1)c1c(F)cccc1F | > 83.3 µM (inactive)
7 | COc1ccccc1NC(=O)Cn1cc(C(=O)C(=O)N2CCOCC2)c2ccccc21 | > 83.3 µM (inactive)
8 | Cc1cc2cc(C(=O)N3CCCC(c4nc5ccccc5[nH]4)C3)ccc2o1 (centres undefined) | > 27.8 µM (inactive)
9 | COCCc1nc2ccc(C(=O)NCCc3nc4ccc(OC)cc4[nH]3)cc2o1 | > 27.8 µM (inactive)
10 | CC(=O)c1cn(CC(=O)Nc2cccc(C(F)(F)F)c2)c2ccccc12 | > 27.8 µM (inactive)
11 | CCN(CCc1nc2ccc(C)cc2[nH]1)C(=O)c1ccc2ncccc2c1 | > 83.3 µM (inactive)
12 | O=C(Cn1cc(C(=O)c2ccco2)c2ccccc21)Nc1cccc(C(F)(F)F)c1 | 74 µM (inactive)
13 | O=C(Cn1cc(C(=O)C2CC2)c2ccccc21)Nc1cccc(C(F)(F)F)c1 | > 27.8 µM (inactive)
14 | COc1ccc(CCN(C(=O)c2cccc(F)c2)C2CC(=O)N(c3ccc(Br)cc3)C2=O)cc1 (centres undefined) | > 83.3 µM (inactive)
15 | Cc1ccc(CNC(=O)CSc2nnc3c(n2)[nH]c2ccc(C)cc23)cc1 | > 27.8 µM (inactive)
16 | CCCCn1c(CCNC(=O)c2ccc(F)cc2)nc2ccccc21 | > 27.8 µM (inactive)
17 | O=C(Cn1cc(C(=O)C(=O)N2CCOCC2)c2ccccc21)NCC1CCCO1 (centres undefined) | > 83.3 µM (inactive)
18 | Cc1cccc(NC(=O)C2CC(=O)n3c(nc4ccccc43)N2)c1 (centres undefined) | > 27.8 µM (inactive)
19 | O=C(Cn1cc(C(=O)C(=O)N2CCCC2)c2ccccc21)Nc1ccccc1 | > 83.3 µM (inactive)
20 | Cc1ccc(C(=O)NCCc2nc3ccccc3[nH]2)cc1[N+](=O)[O-] | > 27.8 µM (inactive)
21 | O=C(Cn1cc(C(=O)C(=O)N2CCOCC2)c2ccccc21)NCc1ccccc1 | > 83.3 µM (inactive)
22 | COc1ccc(NC(=O)C2CC(=O)n3c(nc4ccccc43)N2)cc1 (centres undefined) | > 83.3 µM (inactive)
23 | COc1ccccc1NC(=O)CSc1nnc2c(n1)[nH]c1ccc(C)cc12 | 47.1 µM (inactive)
24 | O=C(NCCc1nc2ccccc2[nH]1)c1ccc(Cl)cc1 | > 27.8 µM (inactive)
25 | COc1ccc(NC(=O)CSc2nnc3c4cc(C)ccc4n(C)c3n2)cc1 | > 83.3 µM (inactive)

Row | SMILES | IC50
26 | Cn1c(CCNC(=O)c2ccc(Cl)cc2)nc2ccccc21 | > 27.8 µM (inactive)
27 | COc1cccc(NC(=O)C2CC(=O)n3c(nc4ccccc43)N2)c1 (centres undefined) | > 83.3 µM (inactive)
28 | Cc1cccc2[nH]c(CCN(C)C(=O)c3cccc(C4CCNC4)c3)nc12 (centres undefined) | > 83.3 µM (inactive)
29 | CC(C)c1nc2ccc(C(=O)N(C)CCc3nc4ccc(F)cc4[nH]3)cc2o1 | > 83.3 µM (inactive)
30 | CCC(=O)c1cn(CC(=O)Nc2cccc(C(F)(F)F)c2)c2ccccc12 | > 27.8 µM (inactive)
31 | CCc1ccc2c(c1)c1nnc(SCC(=O)Nc3ccc4c(c3)OCO4)nc1n2C | 81.1 µM (inactive)
32 | O=C(Nc1ccc(F)c(Cl)c1)C1CC(=O)n2c(nc3ccccc32)N1 (centres undefined) | > 83.3 µM (inactive)
33 | CNC(=S)N(CCc1ccccc1)C1CC(=O)N(c2ccc(Br)cc2)C1=O (centres undefined) | > 27.8 µM (inactive)
34 | CCN(CC)C(=O)C(=O)c1cn(CC(=O)N(CC)c2ccccc2)c2ccccc12 | > 27.8 µM (inactive)
35 | Cc1cccc2[nH]c(C3CCCN(C(=O)c4cccc5cccnc45)C3)nc12 (centres undefined) | > 27.8 µM (inactive)
36 | CCN(C(=O)Cn1cc(C(=O)C(=O)N2CCOCC2)c2ccccc21)c1ccccc1 | > 83.3 µM (inactive)
37 | O=C(CSc1nnc2c(n1)[nH]c1ccc(Br)cc12)NCc1ccccc1 | > 27.8 µM (inactive)
38 | O=C(NCCc1nc2ccccc2[nH]1)c1ccc(Cl)c(Cl)c1 | > 83.3 µM (inactive)
39 | CC1Cc2ccccc2N1C(=O)Cn1cc(C(=O)C(=O)N2CCOCC2)c2ccccc21 (centres undefined) | > 83.3 µM (inactive)
40 | O=C1CC(NCCc2ccccc2)C(=O)N1c1ccc(Br)cc1 (centres undefined) | > 83.3 µM (inactive)
41 | CCN(CC)C(=O)C(=O)c1cn(CC(=O)N2CCCc3ccccc32)c2ccccc12 | > 83.3 µM (inactive)
42 | CCN(CC)C(=O)C(=O)c1cn(CC(=O)Nc2cccc(C(F)(F)F)c2)c2ccccc12 | 38 µM (inactive)
43 | COc1ccc(CCN(C(=S)Nc2ccccc2)C2CC(=O)N(c3ccc(Cl)cc3)C2=O)cc1 (centres undefined) | 27.2 µM (inactive)
44 | CCc1ccc2[nH]c3nc(SCC(=O)NCc4cccc(OC)c4)nnc3c2c1 | > 27.8 µM (inactive)
45 | Cc1cccc(C(=O)NCCc2nc3ccccc3n2CCOc2ccccc2)c1 | > 27.8 µM (inactive)
46 | O=C(NCCc1nc2ccccc2[nH]1)c1ccc(Cl)cc1Cl | > 27.8 µM (inactive)
47 | CCN(CC)C(=O)C(=O)c1cn(CC(=O)Nc2cccc(OC)c2)c2ccccc12 | > 27.8 µM (inactive)
48 | CCN(CC)C(=O)C(=O)c1cn(CC(=O)Nc2ccccc2OC)c2ccccc12 | > 83.3 µM (inactive)
49 | Cc1ccc2[nH]c3nc(SCC(=O)Nc4ccc(C(F)(F)F)cc4)nnc3c2c1 | > 83.3 µM (inactive)
